# Measurements reported in article PMC11345766, “Computational Design of Pore-Forming Peptides with Potent Antimicrobial and Anticancer Activities” (Journal of Medicinal Chemistry, 2024).
# Ends that are not written are not given here.
# Assays:
# E. coli (TOP10) = assay: Broth microdilution antimicrobial susceptibility assay; format: cell-based, Escherichia coli
# How it was run: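 Bacteria were grown on MHA for 24 h, subcultured in MHB for 6 h at 37 °C and diluted to 10^6 CFU/mL. Compounds were serially diluted from 50 to 0.1 μM, inoculated and incubated for 24 h at 37 °C. MIC was the lowest concentration with no visible turbidity.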
# HCT-15 = assay: cells; format: cell-based, human; settings: 72 h
# Protocol: (§1) The CellTiter-Glo luminescent cell viability assay examining the impact of peptides on 22 different human cell lines was purchased from Reaction Biology Europe GmbH (Germany). Cells were cultured in different media (Table S1), seeded into a flat-bottom 96-well plate, and incubated at 37 °C. After overnight incubation, test compounds were added with 1% PBS/0.3% Tween 20 and the reference compound bortezomib was added with 0.1% DMSO. Negative controls were solvents alone, and positive control was 10 μM staurosporine. After 72 h of incubation at 37 °C, 5 or 10% CO2 (dependent on the medium), and 1 h equilibration at room temperature, well plates were treated with CellTiter-Glo reagent (Promega) for an hour and luminescence was measured using a luminometer.
# (§2) Table S1. In vitro activity against 22 different human cancer cell lines.
# (§3) Sr. Cancer Activity (in M)
# (§4) no. Cell line type Culture medium
# (§5) The effect of investigated compounds on the proliferation of 22 different human cell lines is
# (§6) Twenty of these 22 cell lines represent specific cancer types and 2 were non-cancerous. Peptide
# (§7) Anticancer drug bortezomib was used as the […]
# OVCAR-3 = assay: cells; format: cell-based, human; settings: 72 h
# Protocol: as §1, §2, §3, §4, §5, §6, §7
# MDA MB 435 = assay: cells; format: cell-based, human; settings: 72 h
# Protocol: as §1, §2, §3, §4, §5, §6, §7
# RPMI 8226 = assay: cells; format: cell-based, human; settings: 72 h
# Protocol: as §1, §2, §3, §4, §5, §6, §7
# [1] = system: A. baumannii (NCTC 13301); assay: Murine excisional dorsal wound infection model; format: in vivo, mouse; settings: for Survival: day 3 postinfection
# Protocol: To investigate wound-healing applications, two peptides (LP1 and LP18) were tested in a murine wound infection model.[57] Immunosuppressed mice were infected with 5 × 10^4 cells per mL of A. baumannii (NCTC 13301) at the excised dorsal wound. The peptides at 1000 times the MICs (∼10 mg/kg) were applied directly to the wound by puncturing the dressing with a syringe once a day for 7 days. After removal of the dressing, necrosis of the epidermal tissue at the wound edges and wound expansion were observed. These conditions were reduced in the LP1-treated group, followed by the LP18-treated, PBS-treated, and untreated groups (Figure S6a,b). Contractile wound healing appeared to be higher in the LP1-treated group compared to the other groups. After 20 days, LP1-treated wounds were either completely closed or had less than 10 mm^2 of overlying serocellular crust, whereas the other wounds had larger and more inflamed serocellular crusts.
# Eight-to-ten-week-old female Balb/c mice (obtained from Envigo, Netherlands) were subjected to immunosuppression induction by two intraperitoneal doses of 150 and 100 mg/kg cyclophosphamide on days −4 and −1, respectively, before wounding. On day 0 of wounding, mice were anesthetized with isoflurane and the dorsal region was shaved and scrubbed with iodine solution. A full-thickness skin defect was created over the thoracic spine using a 6 mm disposable skin biopsy punch (KAI Industries Co., Ltd., Japan). Infection was established by applying 25 μL of A. baumannii NCTC 13301 (5 × 10^4 CFU/mL) applied directly to the wound and allowed to absorb for 2 min. Wound was covered with a transparent sterile dressing (Tegaderm, Deutschland GmbH, Germany) and secured with tissue adhesive (Surgibond, SMI AG, Belgium). Afterward, mice received an intramuscular injection of buprenorphine (0.05 mg/kg). […] From 10^–3, 10^–5, and 10^–7 dilutions, 100 μL of the sample was collected three times, incubated on MacConkey agar plates (Trios, Czech Republic), and analyzed for viable cell counts. […]
Substance,"MIC (E. coli (TOP10); 24 h, MHB) [µM]","MIC against E. coli (TOP10) (E. coli (TOP10); TOP10, 24 h, pH 6) [µM]",IC50 (HCT-15) [µM],IC50 (OVCAR-3) [µM],IC50 (MDA MB 435) [µM],IC50 (RPMI 8226) [µM],pH dependence of antimicrobial activity (E. coli (TOP10); pH 8 and 6),Survival [1] [%],"Overlying serocellular crust of wound ([1]; topical, 1000 times the MIC (∼10 mg/kg) once a day for 7 days, after 20 days)"
H-HHHHLKKILKKLFQFINQLDNQLQDIHHHH-OH [LP40],> 50,0.4,7.1,9,190,5.6,–,–,–
KKKKLKKILKKLFQFINQLDNQLQDIKKKK-NH2 [LP18],–,–,–,–,–,–,independent of pH,100,–
KKKKLKKILKKLFQFINQLDNQLQDIKQNK-NH2 [LP1],–,–,4.7,4.9,1.4,4.4,–,100,less than 10 mm^2
